Series [1] has as its system obese diabetic C57BLKS db/db mice. The series can be described thus: In vivo efficacy in diabetic db/db mice (plasma glucose, triglycerides, HOMA index). The arrangement: species or system mouse. To be noted: male db/db mice, after 1-2 weeks of treatment; for Plasma Triglycerides (% change compared to vehicle) / Plasma glucose (% change compared to vehicle): 6 h fast; for Insulin resistance HOMA index (% change compared to vehicle): HOMA = I0×G0/405. As to the method: Male obese diabetic C57BLKS db/db mice (6 weeks old) were procured from the Jackson Laboratory (Bar Harbor, Me.) and were maintained on LabDiet 5K52 ad libitum with access to water. Animals were kept in a temperature-controlled room on a 12:12-h light-dark cycle. Experiments were performed on 6-9 week old mice.
Blood samples were collected after a 6 h fast on day 0 (baseline) and at the end week 1 and week 2 (day 7 and day 14) for analysis of glucose, triglycerides, total cholesterol, insulin and free fatty acid levels. Body weight and feed intake was measured twice weekly. Before initiation of the treatment, the animals were randomized based on plasma glucose levels into treatment groups (n=8 per group). The animals were administered the test compounds in 0.5% carboxymethylcellulose in water at the mentioned doses for two weeks by oral gavage. The control animals received the vehicle (0.5% carboxymethylcellulose in water) alone. Compound administration was continued till day 16.
Plasma glucose (PG) and triglycerides (TG) were measured spectrophotometrically in a microplate reader using reagent kits (Labkit, Merck) according to the manufacturer's instructions. Plasma insulin was measured by ELISA using a Rat/Mouse kit from Millipore (Cat. No. EZRMI-13K).
The percentage reduction was calculated according to the following formula
[formula] Statistical analysis was carried out by one way ANOVA followed by Dunnett's test using GraphPad Prism.
Determination of Homeostatic model assessment of insulin resistance (HOMA)—The HOMA index for insulin resistance was calculated using the formula— I0×G0/405 Where I0 is the fasting insulin (μU/ml), G0 is the fasting glucose in mg/dL. A factor of 6.945 was used for the conversion of insulin pmol/L to μlU/L).
The table below summarizes the effect on plasma glucose, triglycerides, and insulin resistance after 1-2 weeks of treatment with representative compounds of Formula I. Example numbers denote the products of examples given above. The data presented in the table is representative and should not be read as limiting the invention to the specific examples listed in the Table.

Molecules are shown by their SMILES.

For `O=C(O)CC1(CCCCCCCCCCCC2(C(=O)O)CC2)CC1` [Example 30, 1-[11-(1-Carboxymethyl-cyclopropyl)-undecyl]-cyclopropanecarboxylic acid], the melting point (commonly the temperature, or range, at which the solid turns liquid) fell in the range of 75.3 to 78.9 °C.
For `COC(=O)C1(CCCCCCCCCCCCC2(C(=O)NC3CC3)CC2)CC1` [Example 34, 1-[12-(1-cyclopropylcarbamoyl-cyclopropyl)-dodecyl]-cyclopropane-carboxylic acid methyl ester], the melting point is 50.6 to 53 °C.
`NC(=O)C1(CCCCCCCCCCCCC2(C(=O)O)CC2)CC1` [Example 12] displayed a melting point of 116.6 to 118.1 °C. Also, in series [1] (20 mg/kg oral gavage), the “Plasma Triglycerides (% change compared to vehicle)” value is recorded as −28%, the “Plasma glucose (% change compared to vehicle)” value is listed as −55% and the “Insulin resistance HOMA index (% change compared to vehicle)” value was −89%.
`O=C(O)C1(CCCCCCCCCCCCC2(C(=O)NC3CC3)CC2)CC1` [Example 35, 1-[12-(1-Cyclopropylcarbamoyl-cyclopropyl)-dodecyl]-cyclopropane carboxylic acid]: the melting point lay within 95.3 to 97.7 °C. Besides, in series [1] (15 mg/kg oral gavage), the “Plasma glucose (% change compared to vehicle)” value is −30%.
Compound `O=C(O)C1(CCCCCCCCCCCCC2(C(F)F)CC2)CC1` [Example 39, 1-[12-(1-Difluoromethyl-cyclopropyl)-dodecyl]-cyclopropanecarboxylic acid] yielded a melting point of 54 to 54.8 °C.
As to `CS(=O)(=O)NC(=O)C1(CCCCCCCCCCCCC2(C(=O)O)CC2)CC1` [Example 37, 1-[12-(1-Methanesulfonylaminocarbonyl-cyclopropyl)-dodecyl]-cyclopropanecarboxylic acid], the melting point is 97.5 to 99.4 °C. Moreover, the “Plasma glucose (% change compared to vehicle)” value in series [1] (15 mg/kg oral gavage) was −59%.
Compound `N#CC1(CCCCCCCCCCCCC2(C#N)CC2)CC1` yielded a melting point of 45 to 46.9 °C.
For `O=C(O)C1(CCCCCCCCCCCCC2(C(=O)O)CC2)CC1` [Example 1, 2,15-Dicycloproryl-hexadecanedioic acid], in series [1] (10 mg/kg oral gavage), the “Plasma glucose (% change compared to vehicle)” value is recorded as −52% and the “Insulin resistance HOMA index (% change compared to vehicle)” value is −65%.
`O=C(O)CC1(CCCCCCCCCCC2(C(=O)O)CC2)CC1` [Example 23, 1-[10-(1-Carboxymethyl-cyclopropyl)-decyl]-cyclopropanecarboxylic acid]: the melting point is 71.9 to 74.3 °C.
As for `COC(=O)C1(CCCCCCCCCCCCC2(C(=O)NS(C)(=O)=O)CC2)CC1` [Example 36, 1-[12-(1-Methanesulfonylaminocarbonyl-cyclopropyl)-dodecyl]-cyclopropanecarboxylic acid methyl ester], the melting point fell in the range of 53.5 to 54.5 °C.
With `O=C(O)CC1(CCCCCCCCCCC2(CC(=O)O)CC2)CC1` [Example 4, {1-[10-(1-carboxymethyl-cyclopropyl)-decyl]-cyclopropyl}-acetic acid], in series [1] (50 mg/kg oral gavage), the “Plasma Triglycerides (% change compared to vehicle)” value was −51% and the “Insulin resistance HOMA index (% change compared to vehicle)” value is given as −54%.
`O=C(NCCO)C1(CCCCCCCCCCCCC2(C(=O)NCCO)CC2)CC1` [Example 40, 1,1′-dodecane-1,12-diylbis[N-(2-hydroxyethyl)cyclopropanecarboxamide]] showed a melting point of 112.5 to 113.5 °C.
`N#CC1(CCCCCCCCCCCCC2(C(=O)O)CC2)CC1` yielded a melting point of 44.4 to 46.9 °C.
Compound `O=C(O)C1(CCCCCCCCCCCCC2(C(=O)NCCO)CC2)CC1` [Example 42, 1-{12-[1-(2-hydroxy-ethylcarbamoyl)-cyclopropyl]-dodecyl}-cyclopropane carboxylic acid] showed a melting point of 81.1 to 83.8 °C.
Consider `CC(C)(CCCCCCCCCCCCC1(C(=O)O)CC1)C(=O)O`, for which the melting point lay in the range of 85.6 to 86.7 °C.
Compound `COCC1(CCCCCCCCCCCCC2(C(=O)O)CC2)CC1` [Example 15, 1-[12-(1-Methoxymethyl-cyclopropyl)-dodecyl]-cyclopropanecarboxylic acid] displayed a melting point of 36.4 to 37.6 °C. Further, in series [1] (15 mg/kg oral gavage), the “Plasma Triglycerides (% change compared to vehicle)” value was −35%, the “Plasma glucose (% change compared to vehicle)” value is recorded as −56% and the “Insulin resistance HOMA index (% change compared to vehicle)” value was −92%.
For the compound `CCOC(=O)C1(CCCCCCCCCCCCC2(C(=O)OCC)CC2)CC1` [Example 10, 2,15-Dicyclopropyl-hexadecanedoic acid diethyl ester], in series [1] (15 mg/kg oral gavage), the “Plasma Triglycerides (% change compared to vehicle)” value is recorded as −23% and the “Plasma glucose (% change compared to vehicle)” value is −51%.

(Values after patent US8623897B2, “Methods and compositions for treatment of diabetes and dyslipidemia” (Kareus Therapeutics, SA, priority 2010, dated 2014).)
